Test results from paper PMC7614683, “A small molecule PI3Kα activator for cardioprotection and neuroregeneration” (Nature, 2023).

Molecular target: T1, full length p110α/p85α (Homo sapiens, UniProt P42336)
T1 construct: Full-length human p110α was expressed either in a complex with full-length human p85α (for HTS, biochemistry and HDX-MS); 6xHis tag followed by TEV protease site (N); host or cells: Spodoptera frugiperda Sf9, baculovirus
Assay: HDX-MS
Type: binding
Protocol: Sample preparation: HDX-MS experiments were carried out as described previously. […] In total, three biological replicates, i.e. three separate protein preparations, each with exchange experiments carried out in triplicate were conducted. Data presented in the manuscript is a single biological replicate. Data acquisition and analysis were as follows: Each sample was thawed and injected onto an M-Class Acquity UPLC with HDX Technology (Waters) kept at 0.1°C. Proteins were digested in-line using an Enzymate Pepsin Column (Waters, #186007233) at 15°C for 2 min at 200 μl/min. Peptic peptides were then eluted onto an Acquity UPLC BEH C18 Column (Waters, #186002346) equilibrated in Pepsin-A buffer (0.1% formic acid) and separated using a 5-35% gradient of Pepsin-B buffer (0.1% formic acid, 99% acetonitrile) over 7 min at a flowrate of 40 μl/min. Data were collected on a Waters Cyclic IMS, with an electrospray ionisation source, from 50-2000 m/z. Data were collected in the HDMS^E mode. A single pass of the cyclic IMS was conducted. A “blank” sample of protein dilution buffer with quench was run between samples, and carry-over of peptides was routinely monitored. Five replicates were used to identify non-deuterated peptides. Criteria used to include peptides in the HDX-MS dataset were: minimum intensity 5000, minimum sequence length 5, maximum sequence length 25, a minimum of 3 fragment ions, a minimum of 0.1 products per amino acid, a minimum score of 6.62, a maximum MH+ Error of 10 ppm, identification in at least two datasets with a retention time RSD of less than 10%. Data was analysed using Protein Lynx Global Server (Waters) and DynamX (Waters). All peptides were manually inspected for EX1 kinetics and sufficient quality of the peptide envelope. Data quality, experiment design, and reporting of data meets the criteria as determined by the HDX-MS community. Uptake files were created using Baryonyx. Data are available via ProteomeXchange with identifier PXD037721.

T1 sequence (P42336 whole entry): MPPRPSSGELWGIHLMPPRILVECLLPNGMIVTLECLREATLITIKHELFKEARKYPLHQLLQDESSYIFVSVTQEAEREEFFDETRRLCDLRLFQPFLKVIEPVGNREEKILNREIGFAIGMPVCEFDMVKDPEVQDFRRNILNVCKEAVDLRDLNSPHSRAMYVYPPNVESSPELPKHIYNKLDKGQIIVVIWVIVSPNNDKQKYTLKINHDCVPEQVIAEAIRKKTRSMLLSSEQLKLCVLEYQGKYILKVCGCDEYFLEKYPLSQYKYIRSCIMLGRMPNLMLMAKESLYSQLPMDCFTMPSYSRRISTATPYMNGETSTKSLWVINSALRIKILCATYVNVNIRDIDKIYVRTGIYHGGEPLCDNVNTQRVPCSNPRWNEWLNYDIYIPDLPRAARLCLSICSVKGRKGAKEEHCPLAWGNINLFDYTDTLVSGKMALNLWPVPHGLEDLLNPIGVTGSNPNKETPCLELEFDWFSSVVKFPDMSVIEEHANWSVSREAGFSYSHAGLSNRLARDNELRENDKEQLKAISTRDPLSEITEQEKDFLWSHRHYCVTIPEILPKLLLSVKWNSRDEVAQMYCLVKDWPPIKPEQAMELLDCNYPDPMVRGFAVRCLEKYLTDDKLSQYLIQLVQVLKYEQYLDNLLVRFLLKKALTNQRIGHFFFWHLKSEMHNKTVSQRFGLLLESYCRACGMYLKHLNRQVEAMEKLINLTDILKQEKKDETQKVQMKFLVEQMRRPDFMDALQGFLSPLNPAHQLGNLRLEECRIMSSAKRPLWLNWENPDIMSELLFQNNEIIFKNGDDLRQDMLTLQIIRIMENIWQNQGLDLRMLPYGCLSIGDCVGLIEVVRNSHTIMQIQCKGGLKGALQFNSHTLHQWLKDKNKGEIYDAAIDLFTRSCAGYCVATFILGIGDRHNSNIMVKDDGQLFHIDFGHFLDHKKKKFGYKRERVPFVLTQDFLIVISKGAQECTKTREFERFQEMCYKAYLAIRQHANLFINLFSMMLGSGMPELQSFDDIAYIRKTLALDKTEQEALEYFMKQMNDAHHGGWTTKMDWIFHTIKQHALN
T1 sequence (P27986 whole entry partner): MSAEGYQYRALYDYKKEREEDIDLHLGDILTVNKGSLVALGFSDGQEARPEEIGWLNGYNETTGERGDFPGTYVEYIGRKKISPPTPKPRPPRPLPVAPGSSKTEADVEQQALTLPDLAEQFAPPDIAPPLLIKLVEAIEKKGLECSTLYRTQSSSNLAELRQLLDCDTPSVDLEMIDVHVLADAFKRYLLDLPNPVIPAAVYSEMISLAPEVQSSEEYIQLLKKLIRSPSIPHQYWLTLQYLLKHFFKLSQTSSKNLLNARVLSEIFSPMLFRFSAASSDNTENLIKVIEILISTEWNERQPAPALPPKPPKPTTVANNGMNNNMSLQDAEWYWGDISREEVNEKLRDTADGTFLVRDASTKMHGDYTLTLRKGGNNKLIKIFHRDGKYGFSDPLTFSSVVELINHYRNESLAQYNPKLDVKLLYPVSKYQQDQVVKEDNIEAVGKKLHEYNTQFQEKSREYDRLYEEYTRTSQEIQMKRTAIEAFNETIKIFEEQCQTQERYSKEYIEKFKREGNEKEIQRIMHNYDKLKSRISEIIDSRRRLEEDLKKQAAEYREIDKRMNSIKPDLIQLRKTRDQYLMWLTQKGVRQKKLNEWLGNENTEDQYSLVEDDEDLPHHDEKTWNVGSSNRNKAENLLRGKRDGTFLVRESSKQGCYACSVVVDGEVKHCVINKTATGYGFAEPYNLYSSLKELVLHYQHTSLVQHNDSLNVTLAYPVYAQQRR

In the case of `CCN1CCN(c2ccc(Nc3cc(Nc4cccc5c4N(C(C)=O)CC5)ccn3)cc2)CC1` [Compound 1938], the “HDX difference, percentage” value (PK3CA_HUMAN peptide 487-498, time column 5 of 5) is reported as -0.361%, the “HDX difference, percentage” value (PK3CA_HUMAN peptide 496-507, time column 1 of 5, deuterium exchange time 0.005) is reported as -1.7% and the “HDX difference, percentage” value (PK3CA_HUMAN peptide 496-507, time column 2 of 5, deuterium exchange time 0.05) is reported as 0.429%. The “HDX difference, percentage” value (PK3CA_HUMAN peptide 496-507, time column 3 of 5, deuterium exchange time 0.5) was 0.5%, the “HDX difference, percentage” value (PK3CA_HUMAN peptide 496-507, time column 4 of 5, deuterium exchange time 5) was 0.6% and the “HDX difference, percentage” value (PK3CA_HUMAN peptide 496-507, time column 5 of 5) was 0.121%. For the same compound, the “HDX difference, percentage” value (PK3CA_HUMAN peptide 508-520, time column 1 of 5, deuterium exchange time 0.005) was -0.644%, the “HDX difference, percentage” value (PK3CA_HUMAN peptide 508-520, time column 2 of 5, deuterium exchange time 0.05) was 1.9% and the “HDX difference, percentage” value (PK3CA_HUMAN peptide 508-520, time column 3 of 5, deuterium exchange time 0.5) was 1.4%. The “HDX difference, percentage” value (PK3CA_HUMAN peptide 508-520, time column 4 of 5, deuterium exchange time 5) was 1.5%, the “HDX difference, percentage” value (PK3CA_HUMAN peptide 508-520, time column 5 of 5) was 0.952% and the “HDX difference, percentage” value (PK3CA_HUMAN peptide 538-549, time column 1 of 5, deuterium exchange time 0.005) was -0.8%. For the same compound, the “HDX difference, percentage” value (PK3CA_HUMAN peptide 538-549, time column 2 of 5, deuterium exchange time 0.05) was 1.0%, the “HDX difference, percentage” value (PK3CA_HUMAN peptide 538-549, time column 3 of 5, deuterium exchange time 0.5) was 0.441% and the “HDX difference, percentage” value (PK3CA_HUMAN peptide 538-549, time column 4 of 5, deuterium exchange time 5) was -1.1%. The “HDX difference, percentage” value (PK3CA_HUMAN peptide 538-549, time column 5 of 5) was -0.257%, the “HDX difference, percentage” value (PK3CA_HUMAN peptide 538-554, time column 1 of 5, deuterium exchange time 0.005) was -1.3% and the “HDX difference, percentage” value (PK3CA_HUMAN peptide 538-554, time column 2 of 5, deuterium exchange time 0.05) was 0.7%. For the same compound, the “HDX difference, percentage” value (PK3CA_HUMAN peptide 538-554, time column 3 of 5, deuterium exchange time 0.5) was 0.47%, the “HDX difference, percentage” value (PK3CA_HUMAN peptide 538-554, time column 4 of 5, deuterium exchange time 5) was -1.1% and the “HDX difference, percentage” value (PK3CA_HUMAN peptide 538-554, time column 5 of 5) was -0.74%. For the same compound, the “HDX difference, percentage” value (PK3CA_HUMAN peptide 555-570, time column 1 of 5, deuterium exchange time 0.005) was -1.2%, the “HDX difference, percentage” value (PK3CA_HUMAN peptide 555-570, time column 2 of 5, deuterium exchange time 0.05) was 0.462% and the “HDX difference, percentage” value (PK3CA_HUMAN peptide 555-570, time column 3 of 5, deuterium exchange time 0.5) was 0.2%. For the same compound, the “HDX difference, percentage” value (PK3CA_HUMAN peptide 555-570, time column 4 of 5, deuterium exchange time 5) was -1.4%, the “HDX difference, percentage” value (PK3CA_HUMAN peptide 555-570, time column 5 of 5) was -2.6% and the “HDX difference, percentage” value (PK3CA_HUMAN peptide 571-583, time column 1 of 5, deuterium exchange time 0.005) was -0.6%. For the same compound, the “HDX difference, percentage” value (PK3CA_HUMAN peptide 571-583, time column 2 of 5, deuterium exchange time 0.05) was 0.4%, the “HDX difference, percentage” value (PK3CA_HUMAN peptide 571-583, time column 3 of 5, deuterium exchange time 0.5) was 0.167% and the “HDX difference, percentage” value (PK3CA_HUMAN peptide 571-583, time column 4 of 5, deuterium exchange time 5) was -0.378%. For the same compound, the “HDX difference, percentage” value (PK3CA_HUMAN peptide 571-583, time column 5 of 5) was -1.4%, the “HDX difference, percentage” value (PK3CA_HUMAN peptide 582-596, time column 1 of 5, deuterium exchange time 0.005) was -1.6% and the “HDX difference, percentage” value (PK3CA_HUMAN peptide 582-596, time column 2 of 5, deuterium exchange time 0.05) was 0.374%. For the same compound, the “HDX difference, percentage” value (PK3CA_HUMAN peptide 582-596, time column 3 of 5, deuterium exchange time 0.5) was 0.262%, the “HDX difference, percentage” value (PK3CA_HUMAN peptide 582-596, time column 4 of 5, deuterium exchange time 5) was 0.76% and the “HDX difference, percentage” value (PK3CA_HUMAN peptide 582-596, time column 5 of 5) was 0.0749%. For the same compound, the “HDX difference, percentage” value (PK3CA_HUMAN peptide 597-606, time column 1 of 5, deuterium exchange time 0.005) was 0.175%, the “HDX difference, percentage” value (PK3CA_HUMAN peptide 597-606, time column 2 of 5, deuterium exchange time 0.05) was 1.6% and the “HDX difference, percentage” value (PK3CA_HUMAN peptide 597-606, time column 3 of 5, deuterium exchange time 0.5) was 0.5%. For the same compound, the “HDX difference, percentage” value (PK3CA_HUMAN peptide 597-606, time column 4 of 5, deuterium exchange time 5) was 1.4%, the “HDX difference, percentage” value (PK3CA_HUMAN peptide 597-606, time column 5 of 5) was 1.3% and the “HDX difference, percentage” value (PK3CA_HUMAN peptide 610-637, time column 1 of 5, deuterium exchange time 0.005) was -0.237%. For the same compound, the “HDX difference, percentage” value (PK3CA_HUMAN peptide 610-637, time column 2 of 5, deuterium exchange time 0.05) was 0.13%, the “HDX difference, percentage” value (PK3CA_HUMAN peptide 610-637, time column 3 of 5, deuterium exchange time 0.5) was 0.2% and the “HDX difference, percentage” value (PK3CA_HUMAN peptide 610-637, time column 4 of 5, deuterium exchange time 5) was 0.257%. For the same compound, the “HDX difference, percentage” value (PK3CA_HUMAN peptide 610-637, time column 5 of 5) was 0.128%, the “HDX difference, percentage” value (PK3CA_HUMAN peptide 626-638, time column 1 of 5, deuterium exchange time 0.005) was -1.2% and the “HDX difference, percentage” value (PK3CA_HUMAN peptide 626-638, time column 2 of 5, deuterium exchange time 0.05) was 1.0%. For the same compound, the “HDX difference, percentage” value (PK3CA_HUMAN peptide 626-638, time column 3 of 5, deuterium exchange time 0.5) was 0.459%, the “HDX difference, percentage” value (PK3CA_HUMAN peptide 626-638, time column 4 of 5, deuterium exchange time 5) was -0.333% and the “HDX difference, percentage” value (PK3CA_HUMAN peptide 626-638, time column 5 of 5) was -0.147%. For the same compound, the “HDX difference, percentage” value (PK3CA_HUMAN peptide 647-658, time column 1 of 5, deuterium exchange time 0.005) was -0.361%, the “HDX difference, percentage” value (PK3CA_HUMAN peptide 647-658, time column 2 of 5, deuterium exchange time 0.05) was 0.6% and the “HDX difference, percentage” value (PK3CA_HUMAN peptide 647-658, time column 3 of 5, deuterium exchange time 0.5) was 1.0%. The “HDX difference, percentage” value (PK3CA_HUMAN peptide 647-658, time column 4 of 5, deuterium exchange time 5) was 1.2%, the “HDX difference, percentage” value (PK3CA_HUMAN peptide 647-658, time column 5 of 5) was -0.0483% and the “HDX difference, percentage” value (PK3CA_HUMAN peptide 661-687, time column 1 of 5, deuterium exchange time 0.005) was -1.5%. The “HDX difference, percentage” value (PK3CA_HUMAN peptide 661-687, time column 2 of 5, deuterium exchange time 0.05) was 0.4%, the “HDX difference, percentage” value (PK3CA_HUMAN peptide 661-687, time column 3 of 5, deuterium exchange time 0.5) was 0.466% and the “HDX difference, percentage” value (PK3CA_HUMAN peptide 661-687, time column 4 of 5, deuterium exchange time 5) was 0.23%. For the same compound, the “HDX difference, percentage” value (PK3CA_HUMAN peptide 661-687, time column 5 of 5) was -0.271%, the “HDX difference, percentage” value (PK3CA_HUMAN peptide 688-693, time column 1 of 5, deuterium exchange time 0.005) was -3.1% and the “HDX difference, percentage” value (PK3CA_HUMAN peptide 688-693, time column 2 of 5, deuterium exchange time 0.05) was 0.6%. For the same compound, the “HDX difference, percentage” value (PK3CA_HUMAN peptide 688-693, time column 3 of 5, deuterium exchange time 0.5) was -0.142%, the “HDX difference, percentage” value (PK3CA_HUMAN peptide 688-693, time column 4 of 5, deuterium exchange time 5) was -0.352% and the “HDX difference, percentage” value (PK3CA_HUMAN peptide 688-693, time column 5 of 5) was -0.379%. For the same compound, the “HDX difference, percentage” value (PK3CA_HUMAN peptide 692-703, time column 1 of 5, deuterium exchange time 0.005) was -0.563%, the “HDX difference, percentage” value (PK3CA_HUMAN peptide 692-703, time column 2 of 5, deuterium exchange time 0.05) was 0.65% and the “HDX difference, percentage” value (PK3CA_HUMAN peptide 692-703, time column 3 of 5, deuterium exchange time 0.5) was 0.8%. The “HDX difference, percentage” value (PK3CA_HUMAN peptide 692-703, time column 4 of 5, deuterium exchange time 5) was 0.4%, the “HDX difference, percentage” value (PK3CA_HUMAN peptide 692-703, time column 5 of 5) was 0.166% and the “HDX difference, percentage” value (PK3CA_HUMAN peptide 704-709, time column 1 of 5, deuterium exchange time 0.005) was 0.4%. The “HDX difference, percentage” value (PK3CA_HUMAN peptide 704-709, time column 2 of 5, deuterium exchange time 0.05) was 0.074%, the “HDX difference, percentage” value (PK3CA_HUMAN peptide 704-709, time column 3 of 5, deuterium exchange time 0.5) was -1.2% and the “HDX difference, percentage” value (PK3CA_HUMAN peptide 704-709, time column 4 of 5, deuterium exchange time 5) was -0.7%. The “HDX difference, percentage” value (PK3CA_HUMAN peptide 704-709, time column 5 of 5) was 0.531%.
